# In patent US20050019847A1, “ISG15-conjugated proteins” (priority 2003, published 2005):
# Peptide text beside a SMILES is read from it. * marks the point of attachment. Cbz = O=C(OCc1ccccc1)*
# Legend:
# ISG15-conjugates = test: Western blot of ISG15-conjugates in MEFs treated with proteasome inhibitor; format: cell-based, murine
# Description: (§1) (A) UBP43^+/+ and UBP43^−/− MEFs were incubated with or without IFNβ for 18 hours and were treated with lactacystin at a final concentration of 5 μM for 3 hours. An equal volume of DMSO (vehicle) was added to control samples. Cell lysates (10 μg total protein) were resolved on 8-18% minigel and western blot was performed with rabbit anti-mouse ISG15. The membrane was stripped and reprobed with anti-Ub serum. (B) UBP43^+/+ (not treated with IFN) and UBP43^−/− (incubated with IFNβ for 18 hours) MEFs were treated with MG132 at a final concentration of 10 μM for 3 hours. An equal volume of DMSO (vehicle) was added to control samples. PLCγ1 was immunoprecipitated and immunocomplexes were resolved on 7% minigel. The membrane was probed with anti-ISG15 and, after stripping, was reprobed with anti-PLCγ1. Positions of unmodified PLCγ1 are shown with arrows and positions of conjugates are shown with asterisks. Cell lysates (10 μg total protein) were also resolved on an identical minigel to assess amount of ISG15- and Ub-conjugates. Western blot was performed with rabbit anti-mouse ISG15 and after stripping the membrane was reprobed with anti-Ub serum.
# (§2) Wild type and UBP43^−/− murine embryonic fibroblasts (MEFs) were generated from a litter of embryos on embryonic day 12.5. Briefly, embryonic torsos were minced and trypsinized for 30 min at 37° C. […]
# ubiquitinated proteins = test: Western blot of ubiquitinated proteins in MEFs treated with proteasome inhibitor; format: cell-based, murine; conditions: UBP43−/− and UBP43+/+ MEFs, uninduced or IFNβ induced; lactacystin 5 μM for 3 hours
# Description: as §1, §2
SMILES,"level of ISG15-conjugation (ISG15-conjugates; UBP43+/+ (no IFN) and UBP43−/− (IFNβ 18 hours) MEFs, MG132 10 μM for 3 hours)","amount of ISG15-conjugates, treated vs untreated samples (ISG15-conjugates; UBP43−/− and UBP43+/+ MEFs, uninduced or IFNβ induced, lactacystin 5 μM for 3 hours)",amount of ubiquitinated proteins (ubiquitinated proteins)
CC(C)C[C@@H](C=O)NC(=O)[C@H](CC(C)C)NC(=O)[C@H](CC(C)C)NC(=O)OCc1ccccc1 [MG132] (Cbz-Leu-Leu-Leu-aldehyde),do not affect,,
CC(=O)N[C@@H](CSC(=O)[C@]1([C@@H](O)C(C)C)NC(=O)[C@H](C)[C@@H]1O)C(=O)O [lactacystin],,no difference,increase
